Drawing on ChEMBL document CHEMBL1147970, “Enzymatic synthesis of arbutin undecylenic acid ester and its inhibitory effect on melanin synthesis” (2007), this text covers Activity for two molecules.

In this experiment the test system is B16. Description: Antimelanogenic activity in mouse B16 cells at 0.1 mM after 6 days relative to control. It counts as functional.

The source made the active and inactive calls. No cut-off for these calls is given here.

With `OC[C@H]1O[C@@H](Oc2ccc(O)cc2)[C@H](O)[C@@H](O)[C@@H]1O`, the outcome was inactive.

Molecule `C=CCCCCCCCCC(=O)OC[C@H]1O[C@@H](Oc2ccc(O)cc2)[C@H](O)[C@@H](O)[C@@H]1O` registered an Activity of 30%.
